Test results taken from patent US5618675A, “Methods and compositions for detecting lipopolysaccharides using CAP18 fragments” (Panorama Research, Inc., dated 1997).

What was measured:
E. coli 0111:B4 LPS = experiment: Inhibition of RNIP-mediated hemagglutination by LPS; type: binding; conditions: #36-1 at 16 μg/ml, RNIP (#197) at 25 μg/ml preincubated with LPS 30 minutes
Method: (§1) For hemagglutination assays, erythrocytes were sensitized with LPS as follows. One ml of 1% erythrocyte suspension (human 0 type, C3H/HeN mouse or sheep) was mixed with 0.2 ml of LPS solution and incubated at 37° C. for 30 min, followed by washing with phosphate buffered saline (PBS), and then the concentration of suspension was adjusted to 1.0%. In the case of S-LPS, the solution was heated at 100° C. for 1 hour before sensitization of erythrocytes. […] Activity of CAP was expressed as a minimum agglutinating concentration (MAC) of CAP. According to the method of Kirikae et al. (1986) Microbiol. Immunol. 30:269-274, 50 μl of 2-fold serial dilution of Re-LPS was added to 50 μl of 1.0% rabbit erythrocyte suspension, and incubated at 37° C. for 3, hour. Minimum agglutinating concentration of Re-LPS was expressed as 1 HA unit.
(§2) Another series of experiments was performed to determine if the #36-1 and #197 (RNIP) peptides were capable of binding to LPS from various species of Gram-negative bacteria. For these experiments, sheep red blood cells were sensitized with Salmonella minnesota Re-LPS. Peptides #36-1 and #197 (RNIP) were preincubated with various preparations of LPS. Both peptides bind to a diverse group of lipopolysaccharides.
(§3) °Peptide #361 (16 μg/ml) and RNIP (#197) (25 μg/ml) were
(§4) preincubated with each LPS preparation at 370 for 30 minutes, and each
(§5) reaction mixture was added to sheep erythrocytes sensitized with RELPS.

E. coli 055:B5 LPS = experiment: as above; type: binding; conditions: #36-1 at 16 μg/ml, RNIP (#197) at 25 μg/ml preincubated with LPS 30 minutes
Method: as §1, §2, §3, §4, §5

[1] = tested on: Klebsiella pneumoniae LPS; experiment: as above; type: binding; conditions: #36-1 at 16 μg/ml, RNIP (#197) at 25 μg/ml preincubated with LPS 30 minutes
Method: as §1, §2, §3, §4, §5

[2] = tested on: Pseudomonas aeruginosa F-D Type I LPS; experiment: as above; type: binding; conditions: #36-1 at 16 μg/ml, RNIP (#197) at 25 μg/ml preincubated with LPS 30 minutes
Method: as §1, §2, §3, §4, §5

[3] = tested on: Salmonella minnesota R595 LPS; experiment: as above; type: binding; conditions: #36-1 at 16 μg/ml, RNIP (#197) at 25 μg/ml preincubated with LPS 30 minutes
Method: as §1, §2, §3, §4, §5

factor X = biological target: T1, factor X (Homo sapiens, UniProt P00742); experiment: Factor X activation by tissue factor and factor VII, synthetic substrate S-2222; type: biochemical; conditions: FIG. 16B
T1 construct: purchased Sigma Chemical Co., St. Louis, Mo
T1 sequence (P00742 41-179 limits assumed): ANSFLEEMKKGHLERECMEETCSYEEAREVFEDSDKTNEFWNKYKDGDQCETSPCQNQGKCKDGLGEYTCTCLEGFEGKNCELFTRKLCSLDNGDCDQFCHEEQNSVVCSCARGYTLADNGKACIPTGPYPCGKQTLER
T1 sequence (P00742 183-488 limits assumed): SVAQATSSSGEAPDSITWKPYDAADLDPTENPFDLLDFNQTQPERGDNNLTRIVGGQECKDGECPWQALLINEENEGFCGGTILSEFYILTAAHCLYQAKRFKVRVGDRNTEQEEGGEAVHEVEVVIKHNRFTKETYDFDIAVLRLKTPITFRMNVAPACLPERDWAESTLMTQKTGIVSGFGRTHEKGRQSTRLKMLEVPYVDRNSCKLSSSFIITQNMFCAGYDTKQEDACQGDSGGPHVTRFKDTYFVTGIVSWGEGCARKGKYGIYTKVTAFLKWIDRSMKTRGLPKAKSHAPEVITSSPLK
Description: Clotting method: Human plasma (Ortho plasma control, Ortho Diagnostic Co.). ATPP reagent (Organotechnika, Tokyo, Japan). Standard tissue factor, rabbit brain thromboplastin (Simplastin, ONO Pharmaceutical, Tokyo, Japan). Purified human factor VII, factor X, factor Xa (Sigma Chemical Co., St. Louis, Mo.). Russell Viper venom (RVV) and Echis carinatus venom (ECV, Sigma Co.).
(§6) Synthetic chromogenic substrate method: Substrate for factor Xa, S2222 (Kabi, Bz-Ile-Glu-Arg-pNA) was used. Substrate for factor II (prothrombin), Boc-Val-Pro-Arg-pNA (Sigma Chemical Co.) was used.
A reaction mixture of factor VII (1 unit/ml, 200 μl), factor X (1 unit/ml, 200 μl), tissue factor (2.5 mg/ml, 50 μl), 25 mM-CaCl2(50 μl) and 50 μl of several concentration of peptide was incubated at 37° C. for 10 min. To 200 μl of the reaction mixture, 60 μl of 4 mM S-2222, a synthetic substrate for factor Xa, and 340 μl of Tris-HCl buffer, pH 8.2, was added and further incubated for 15 min. The reaction was stopped by adding 60 μl of 50% acetic acid, and OD for p-nitroaniline was read at 405 nm.

prothrombin (factor II) [4] = biological target: T2, prothrombin (factor II) (Homo sapiens, UniProt P00734); experiment: Prothrombin activation by Echis carinatus venom (ECV); type: biochemical; conditions: FIG. 17A
Method: as §6
A reaction mixture of prothrombin (factor II) (0.1 unit/ml, 200 μl), ECV (1 unit/ml, 200 μl), various concentration of peptide (70 μl), 50 μl of 25 mM-CaCl2 and 180 μl of Tris buffer was incubated at 37° C. for 10 min. To 300 μl of the reaction mixture, 60 μl of 4mM-thrombin substrate and 240 μl of buffer was added and further incubated for 15 min.

prothrombin (factor II) [5] = biological target: T2, prothrombin (factor II); experiment: Prothrombin activation by factor Xa; type: biochemical; conditions: Xa formed from tissue factor, factor VII and factor X, FIG. 17B
Method: as §6
a) Factor X activation. Factor X (1 unit/ml, 400 μl) was activated by incubating with a reaction mixture of factor VII (1 unit/ml, 400 μl), tissue factor (5 mg/ml, 100 μl) and CaCl2 at 37° C. for 10 min.
b) Prothrombin (factor II) activation.
c) Hydrolysis of thrombin substrate. To 300 μl of the reaction mixture (step b), thrombin 60 μl of substrate and 240 μl of Tris buffer was added and further incubated for 15 min.

Candida albicans = experiment: Antimicrobial activity; conditions: range 0-20 μg/ml
Klebsiella pneumoniae = experiment: Antibacterial CFU assay

Substance | MIC (minimal inhibitory concentration of LPS) (E. coli 0111:B4 LPS) [µg/mL] | MIC (minimal inhibitory concentration of LPS) (E. coli 055:B5 LPS) [µg/mL] | MIC (minimal inhibitory concentration of LPS) [1] [µg/mL] | MIC (minimal inhibitory concentration of LPS) [2] [µg/mL] | MIC (minimal inhibitory concentration of LPS) [3] [µg/mL] | IC50, factor X activated by tissue factor and purified factor VII (factor X) [µg/mL] | inhibition of Echis carinatus venom activation of purified factor II to IIa (prothrombin (factor II) [4]) | IC50, factor II activated by Xa (prothrombin (factor II) [5]) [µg/mL] | IC50 (prothrombin (factor II) [5]; read-out: IC50, factor II activated by Xa) [nM] | activity versus Candida albicans (Candida albicans) | anti-bacterial IC50 (CFU) (Klebsiella pneumoniae) [µg/mL] | IC50 (factor X; read-out: IC50, factor X activated by tissue factor and purified factor VII) [nM] | IC50, Echis carinatus venom activation of factor II to IIa (prothrombin (factor II) [4]) [µg/mL] | IC50 (prothrombin (factor II) [4]; read-out: IC50, Echis carinatus venom activation of factor II to IIa) [nM] | IC50 (Klebsiella pneumoniae; read-out: anti-bacterial IC50 (CFU)) [nM]
36-1: synthetic rabbit RNIP-derived fragment, amino acids 135-166 of SEQ ID NO:4 (GLRKRLRKFRNKIKEKLKKIGQKIQGLLPKLA) | 15.6 | 15.6 | 31.3 | 3.9 | 15.6 | 0.6 to 0.7 | inhibited | < 1.8 | < 300 | inactive | < 0.54 | – | – | – | –
RNIP: reactive nitrogen inhibitory protein, amino acids 135-171 of SEQ ID NO:4 (rabbit CAP18 C-terminus); purified from granulocytes or synthetic (#197) (GLRKRLRKFRNKIKEKLKKIGQKIQGLLPKLAPRTDY) | 31.3 | 62.5 | 62.5 | 15.6 | 62.5 | 0.3 to 0.6 | inhibited | 2.8 | – | inactive | < 0.44 | 40 to 100 | 9.4 | 1500 | < 70
